From patent publication US20150064289A1, “Raw Extract of a Sechium Edule Hybrid, Method for Extracting Same and Use Thereof for Formulations Having an Antineoplastic Effect” (priority 2012, published 2015)

Columns and labels:
[1] = test system: HeLa; test: Apoptotic bodies by morphology (Giemsa), HeLa; type: cell-based, human; conditions: 48 hrs, Ara-C 5 μg/mL, mean ± standard deviation
Experimental: (§1) Once elapsed that time, cells were collected and placed on a slide; then were fixed with 1 mL of methanol and stained for 20 minutes with 10% Giemsa stain. Cells were observed under a microscope (Cari Zeiss, Primo Star, Germany) equipped with 100× objective lens. Morphological changes like decreased cell volume, chromatin condensation, loss of cell membrane regularity, were cytomorphological parameters evaluated in the formation of apoptotic bodies. 200 cells of each experiment were counted to obtain the percentage of normal and apoptotic cells.

[2] = test system: WEHI-3; test: Apoptotic bodies by morphology (Giemsa), WEHI-3; type: cell-based, mouse; conditions: 48 hrs, Ara-C 5 μg/mL, mean ± standard deviation
Experimental: as §1

[3] = test system: L929; test: Apoptotic bodies by morphology (Giemsa), L929; type: cell-based, mouse; conditions: 48 hrs, Ara-C 5 μg/mL, mean ± standard deviation
Experimental: as §1

[4] = test system: normal bone marrow cells; test: Proliferation of normal bone marrow cells, crystal violet technique; type: cell-based; conditions: normal mouse bone marrow cells; 5 µg/mL of citarabine; 5 days
Experimental: To determine the effect of the extract of Sechium edule hybrid named MH-387-07-GISeM” on tumor cells, HeLa cell lines, which are derived from adenocarcinoma of […] cervical epithelial tissue; cell line L929 derived from male mouse's fibrosarcoma of areolar and adipose subcutaneous connective […] tissue, WEHI-3 y K562 are lines derived from leukemia (liquid tumors) which are maintained in IMDM culture medium (Iscove's Modified Dulbecco's Medium). Tumor cells were cultured for 72 hours in 200 μL of culture medium and serum containing 0.0, 0.15, 0.3, 0.6, 1.2, 2.5 and 5 μg/mL of extract, and were evaluated by the crystal violet technique (FIG. 1). Cells were maintained in culture for 5 days after being stimulated with diverse doses of extract or Ara-C as a control (5 μM), and were evaluated by the crystal violet technique, FIG. 1, where a dose-response curve of the effect of H-387-07-GISeM extract on cell proliferation of lines EHI-3, HeLa, L929, and bone marrow cells was plotted. Values are the average of three tests with tree replicates. Lines above the bars indicate±standard deviation. * Significant difference (p<0.05) compared to control. […] On the other hand, normal bone marrow cells of mouse treated with […] achieve a proliferation of 60% compared to the control, but with 5 µg/mL of citarabine (Ara-c) it only reaches a 35%.

[5] = test system: WEHI-3; test: Apoptosis induction through DNA fragmentation (agarose gel); conditions: WEHI-3 grown 48 hours, extract at IC50, FIG. 3
Experimental: Apoptosis induction was evaluated through DNA fragmentation.

[6] = test system: K-562; test: Cell viability by trypan blue exclusion, K-562; type: cell-based; conditions: K562
Experimental: On the other hand, the cell viability was evaluated in order to determine that the extract only acts against tumor cells, for which purpose tumor cells were cultured for 72 hours under the above conditions in quantities of 200 μL of medium per well in 96-well, flat bottom, ultra-low adherence plates (Costar, Cambridge, Mass., USA) with various doses of extract.

Structure (SMILES) | % Apoptotic bodies [1] | % Apoptotic bodies [2] | % Apoptotic bodies [3] | proliferation compared to the control [4] | DNA fragmentation [5] | effect on viability ([6]; Ara-c as worded in text) | viability at 1 µM ([6]; Homo sapiens, K-562, imatinib 1 μM (footnote), mean ± standard deviation)
Nc1ccn([C@@H]2O[C@H](CO)[C@@H](O)[C@@H]2O)c(=O)n1 [Ara-C, citarabine] | 21 ± 0% | 61.5 ± 8.2% | 6 ± 1.4% | 35% | experiences DNA fragmentation | totally does so | –
Cc1ccc(NC(=O)c2ccc(CN3CCN(C)CC3)cc2)cc1Nc1nccc(-c2cccnc2)n1 [imatinib] | – | – | – | – | – | – | 4%
